Measured values from PMC8429728, “TNK1 is a ubiquitin-binding and 14-3-3-regulated kinase that can be targeted to block tumor growth” (Nature Communications, 2021).
Like-named read-outs stand apart in the source and are kept apart here.

Experiments:
Assay in all cases: biochemical
Set-up in all cases: Reaction Biology 371-kinase panel at Km ATP, per cent enzyme activity relative to DMSO, single dose in duplicate
[1] = biological target: BRSK1 (Homo sapiens, UniProt Q8TDC3); settings: duplicate measurements, Km ATP
Method in brief: (§1)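 Activity of each kinase, normalised to DMSO-treated controls, served as the read-out. The inhibitor was tested at 300 nM against 371 kinases in vitro. Curves fitted by variable-slope sigmoidal dose-response, constrained to a bottom of 0, gave IC50.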

[2] = biological target: T1, MLK4 (Homo sapiens, UniProt Q5TCX8); settings: duplicate measurements, Km ATP; read-out: % Enzyme Activity (relative to DMSO controls) / TP-0005801 (0.3µM) / Data 1
T1 construct: gene MAP3K21
Method in brief: as §1

[3] = biological target: OSR1/OXSR1 (Homo sapiens, UniProt O95747); settings: duplicate measurements, Km ATP
Method in brief: as §1

[4] = biological target: LRRK2 (Homo sapiens, UniProt Q5S007); settings: duplicate measurements, Km ATP
Method in brief: as §1

[5] = biological target: MST2/STK3 (Homo sapiens, UniProt Q13188); settings: duplicate measurements, Km ATP
Method in brief: as §1

[6] = biological target: LOK/STK10 (Homo sapiens, UniProt O94804); settings: duplicate measurements, Km ATP
Method in brief: as §1

[7] = biological target: EPHA7 (Homo sapiens, UniProt Q15375); settings: duplicate measurements, Km ATP
Method in brief: as §1

[8] = biological target: TLK1 (Homo sapiens, UniProt Q9UKI8); settings: duplicate measurements, Km ATP
Method in brief: as §1

[9] = biological target: TAOK3/JIK (Homo sapiens, UniProt Q9H2K8); settings: duplicate measurements, Km ATP
Method in brief: as §1

[10] = biological target: T2, BRK (Homo sapiens, UniProt Q13882); settings: duplicate measurements, Km ATP
T2 construct: gene PTK6
Method in brief: as §1

[11] = biological target: COT1/MAP3K8 (Homo sapiens, UniProt P41279); settings: duplicate measurements, Km ATP
Method in brief: as §1

[12] = biological target: LATS1 (Homo sapiens, UniProt O95835); settings: duplicate measurements, Km ATP
Method in brief: as §1

[13] = biological target: CDK2/cyclin A1 (Homo sapiens, UniProt P24941); settings: duplicate measurements, Km ATP
Method in brief: as §1

[14] = biological target: PDGFRb (Homo sapiens, UniProt P09619); settings: duplicate measurements, Km ATP
Method in brief: as §1

[15] = biological target: TXK (Homo sapiens, UniProt P42681); settings: duplicate measurements, Km ATP
Method in brief: as §1

[16] = biological target: ALK1/ACVRL1 (Homo sapiens, UniProt P37023); settings: duplicate measurements, Km ATP
Method in brief: as §1

[17] = biological target: STK38L/NDR2 (Homo sapiens, UniProt Q9Y2H1); settings: duplicate measurements, Km ATP
Method in brief: as §1

[18] = biological target: P38a/MAPK14 (Homo sapiens, UniProt Q16539); settings: duplicate measurements, Km ATP
Method in brief: as §1

[19] = biological target: LYN (Homo sapiens, UniProt P07948); settings: duplicate measurements, Km ATP
Method in brief: as §1

[20] = biological target: T3, MST4 (Homo sapiens, UniProt Q9P289); settings: duplicate measurements, Km ATP
T3 construct: gene STK26
Method in brief: as §1

[21] = read-out: % Enzyme Activity (relative to DMSO controls) / TP-0005801 (0.3µM) / Data 1
[22] = read-out: % Enzyme Activity (relative to DMSO controls) / TP-0005801 (0.3µM) / Data 2

Chain of COT1/MAP3K8 (P41279 whole entry): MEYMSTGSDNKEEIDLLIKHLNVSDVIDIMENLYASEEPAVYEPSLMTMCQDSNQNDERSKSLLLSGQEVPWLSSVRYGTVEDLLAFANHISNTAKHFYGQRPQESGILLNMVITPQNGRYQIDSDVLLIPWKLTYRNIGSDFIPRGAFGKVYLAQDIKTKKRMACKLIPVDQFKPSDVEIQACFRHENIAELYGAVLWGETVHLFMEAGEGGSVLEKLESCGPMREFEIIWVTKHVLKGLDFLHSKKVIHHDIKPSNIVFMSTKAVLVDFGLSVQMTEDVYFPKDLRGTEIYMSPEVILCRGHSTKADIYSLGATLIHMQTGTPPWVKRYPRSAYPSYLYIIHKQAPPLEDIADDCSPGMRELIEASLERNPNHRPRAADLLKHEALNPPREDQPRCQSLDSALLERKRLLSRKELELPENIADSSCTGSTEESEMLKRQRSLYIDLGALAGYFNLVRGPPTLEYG
Chain of MST2/STK3 (Q13188 whole entry): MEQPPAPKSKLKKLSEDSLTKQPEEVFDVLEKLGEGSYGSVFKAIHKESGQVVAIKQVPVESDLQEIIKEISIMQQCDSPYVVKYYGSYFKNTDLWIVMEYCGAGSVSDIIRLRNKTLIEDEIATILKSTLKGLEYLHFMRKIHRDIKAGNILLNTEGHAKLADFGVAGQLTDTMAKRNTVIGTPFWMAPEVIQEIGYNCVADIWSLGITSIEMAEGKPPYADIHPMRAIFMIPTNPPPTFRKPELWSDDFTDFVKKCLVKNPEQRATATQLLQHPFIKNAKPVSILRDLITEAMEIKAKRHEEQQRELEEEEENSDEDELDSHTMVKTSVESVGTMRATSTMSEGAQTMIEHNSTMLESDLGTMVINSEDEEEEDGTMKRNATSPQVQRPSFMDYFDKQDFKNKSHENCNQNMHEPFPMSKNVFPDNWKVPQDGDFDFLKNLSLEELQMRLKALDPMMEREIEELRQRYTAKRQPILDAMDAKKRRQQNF
T3 sequence (Q9P289 whole entry): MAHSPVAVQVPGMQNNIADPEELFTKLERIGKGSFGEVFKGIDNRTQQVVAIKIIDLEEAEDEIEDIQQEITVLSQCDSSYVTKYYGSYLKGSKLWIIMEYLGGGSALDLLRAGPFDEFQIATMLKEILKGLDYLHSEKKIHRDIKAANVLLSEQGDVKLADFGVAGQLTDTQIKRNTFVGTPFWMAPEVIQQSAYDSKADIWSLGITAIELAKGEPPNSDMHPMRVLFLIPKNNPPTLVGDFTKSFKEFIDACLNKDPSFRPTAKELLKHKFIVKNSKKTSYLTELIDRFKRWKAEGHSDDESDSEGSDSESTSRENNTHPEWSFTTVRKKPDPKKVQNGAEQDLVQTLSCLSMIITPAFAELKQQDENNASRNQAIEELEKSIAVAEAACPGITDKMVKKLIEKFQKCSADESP
Chain of LRRK2 (Q5S007 whole entry): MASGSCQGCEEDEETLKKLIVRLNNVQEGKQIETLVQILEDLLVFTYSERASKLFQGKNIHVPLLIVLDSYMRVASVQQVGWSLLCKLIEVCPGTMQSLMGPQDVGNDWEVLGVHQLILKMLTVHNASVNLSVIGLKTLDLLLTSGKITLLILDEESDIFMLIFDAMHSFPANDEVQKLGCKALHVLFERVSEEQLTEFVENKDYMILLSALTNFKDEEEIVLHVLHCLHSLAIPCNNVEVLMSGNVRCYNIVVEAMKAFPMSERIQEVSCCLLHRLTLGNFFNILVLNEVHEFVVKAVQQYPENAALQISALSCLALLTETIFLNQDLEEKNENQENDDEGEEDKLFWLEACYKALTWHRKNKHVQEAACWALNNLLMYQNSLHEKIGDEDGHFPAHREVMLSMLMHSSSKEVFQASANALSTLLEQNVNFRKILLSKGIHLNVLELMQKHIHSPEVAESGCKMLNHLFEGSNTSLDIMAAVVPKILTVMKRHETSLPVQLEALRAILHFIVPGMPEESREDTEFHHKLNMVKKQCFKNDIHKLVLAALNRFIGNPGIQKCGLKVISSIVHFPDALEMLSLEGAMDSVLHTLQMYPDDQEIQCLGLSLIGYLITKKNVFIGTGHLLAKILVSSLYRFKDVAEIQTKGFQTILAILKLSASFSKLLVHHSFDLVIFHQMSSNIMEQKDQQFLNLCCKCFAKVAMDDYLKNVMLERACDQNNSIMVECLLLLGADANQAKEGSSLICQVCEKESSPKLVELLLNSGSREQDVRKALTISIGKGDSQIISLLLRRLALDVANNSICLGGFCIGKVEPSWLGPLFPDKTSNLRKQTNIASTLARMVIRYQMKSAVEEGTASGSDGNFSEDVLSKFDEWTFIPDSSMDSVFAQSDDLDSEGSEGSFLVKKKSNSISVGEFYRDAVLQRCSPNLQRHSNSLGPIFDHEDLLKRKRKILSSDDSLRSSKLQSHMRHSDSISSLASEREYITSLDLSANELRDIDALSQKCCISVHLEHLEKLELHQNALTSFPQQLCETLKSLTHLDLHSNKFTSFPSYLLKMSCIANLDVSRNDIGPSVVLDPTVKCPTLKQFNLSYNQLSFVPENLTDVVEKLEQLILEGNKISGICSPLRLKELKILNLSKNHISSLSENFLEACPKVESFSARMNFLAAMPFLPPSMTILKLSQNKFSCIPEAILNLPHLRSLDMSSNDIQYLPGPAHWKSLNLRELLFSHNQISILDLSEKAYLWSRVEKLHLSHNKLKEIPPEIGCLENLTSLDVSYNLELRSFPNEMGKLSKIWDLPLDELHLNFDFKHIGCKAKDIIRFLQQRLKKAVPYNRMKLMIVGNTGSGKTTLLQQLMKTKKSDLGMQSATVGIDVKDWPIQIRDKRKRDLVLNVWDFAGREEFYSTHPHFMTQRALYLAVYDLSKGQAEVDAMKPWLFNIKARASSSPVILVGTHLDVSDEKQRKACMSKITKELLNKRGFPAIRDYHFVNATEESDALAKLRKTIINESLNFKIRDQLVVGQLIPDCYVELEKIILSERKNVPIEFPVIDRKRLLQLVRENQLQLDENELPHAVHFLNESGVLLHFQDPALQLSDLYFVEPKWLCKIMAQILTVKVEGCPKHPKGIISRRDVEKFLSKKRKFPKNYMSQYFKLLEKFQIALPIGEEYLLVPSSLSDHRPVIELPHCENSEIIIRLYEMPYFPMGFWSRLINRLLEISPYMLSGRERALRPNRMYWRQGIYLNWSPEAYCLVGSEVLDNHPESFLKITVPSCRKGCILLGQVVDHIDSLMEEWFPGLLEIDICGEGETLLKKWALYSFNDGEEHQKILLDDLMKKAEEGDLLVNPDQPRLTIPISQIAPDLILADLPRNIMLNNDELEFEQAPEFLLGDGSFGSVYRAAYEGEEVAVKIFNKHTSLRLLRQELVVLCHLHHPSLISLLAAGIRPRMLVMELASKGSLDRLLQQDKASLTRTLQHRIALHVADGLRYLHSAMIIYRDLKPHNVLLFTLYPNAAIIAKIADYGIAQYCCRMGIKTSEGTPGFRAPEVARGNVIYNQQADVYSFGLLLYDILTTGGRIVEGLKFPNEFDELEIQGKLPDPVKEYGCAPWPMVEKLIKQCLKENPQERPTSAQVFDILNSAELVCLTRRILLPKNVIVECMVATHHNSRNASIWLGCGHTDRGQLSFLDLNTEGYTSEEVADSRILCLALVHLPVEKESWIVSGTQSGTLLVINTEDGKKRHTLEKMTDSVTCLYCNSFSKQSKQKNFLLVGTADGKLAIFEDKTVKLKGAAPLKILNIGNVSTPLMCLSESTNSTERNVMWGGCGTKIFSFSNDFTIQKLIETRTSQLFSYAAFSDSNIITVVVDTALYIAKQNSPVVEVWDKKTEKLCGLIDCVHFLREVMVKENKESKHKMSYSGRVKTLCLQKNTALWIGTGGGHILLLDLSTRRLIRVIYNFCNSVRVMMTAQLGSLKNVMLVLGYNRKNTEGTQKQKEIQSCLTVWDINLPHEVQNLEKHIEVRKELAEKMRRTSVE
Chain of STK38L/NDR2 (Q9Y2H1 whole entry): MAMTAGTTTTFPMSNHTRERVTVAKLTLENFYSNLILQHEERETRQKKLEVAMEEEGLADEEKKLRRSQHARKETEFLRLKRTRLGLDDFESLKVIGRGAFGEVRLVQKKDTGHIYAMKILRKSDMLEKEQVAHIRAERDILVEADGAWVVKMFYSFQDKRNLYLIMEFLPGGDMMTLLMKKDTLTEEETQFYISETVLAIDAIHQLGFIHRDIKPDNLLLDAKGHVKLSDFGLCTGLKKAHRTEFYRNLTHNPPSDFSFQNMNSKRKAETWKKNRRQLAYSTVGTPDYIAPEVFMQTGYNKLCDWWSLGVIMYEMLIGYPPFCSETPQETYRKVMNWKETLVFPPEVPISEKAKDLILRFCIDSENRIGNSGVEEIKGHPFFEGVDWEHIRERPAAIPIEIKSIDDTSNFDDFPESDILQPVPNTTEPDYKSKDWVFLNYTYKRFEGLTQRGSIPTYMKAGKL
T2 sequence (Q13882 whole entry): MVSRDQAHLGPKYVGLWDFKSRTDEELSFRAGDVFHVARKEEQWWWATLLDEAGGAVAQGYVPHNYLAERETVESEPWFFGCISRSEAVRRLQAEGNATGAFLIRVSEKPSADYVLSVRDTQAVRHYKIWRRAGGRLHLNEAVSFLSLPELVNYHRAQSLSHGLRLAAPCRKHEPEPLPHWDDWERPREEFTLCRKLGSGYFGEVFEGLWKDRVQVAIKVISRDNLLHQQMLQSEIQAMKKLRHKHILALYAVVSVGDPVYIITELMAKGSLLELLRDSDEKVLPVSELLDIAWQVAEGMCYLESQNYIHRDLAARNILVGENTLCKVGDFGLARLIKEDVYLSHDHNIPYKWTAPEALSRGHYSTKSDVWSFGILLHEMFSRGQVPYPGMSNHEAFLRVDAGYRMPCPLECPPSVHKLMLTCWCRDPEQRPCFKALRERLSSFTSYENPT

remaining activity at 0.3 µM [1, 21]: 101% | remaining activity at 0.3 µM [1, 22]: 95.8% | remaining activity at 0.3 µM [2]: 106% | remaining activity at 0.3 µM [3, 21]: 110% | remaining activity at 0.3 µM [3, 22]: 104% | remaining activity at 0.3 µM [4, 21]: 8.89% | remaining activity at 0.3 µM [4, 22]: 8.22% | remaining activity at 0.3 µM [5, 21]: 97.7% | remaining activity at 0.3 µM [5, 22]: 97.5% | remaining activity at 0.3 µM [6, 21]: 74.7% | remaining activity at 0.3 µM [6, 22]: 73.7% | remaining activity at 0.3 µM [7, 21]: 95.2% | remaining activity at 0.3 µM [7, 22]: 94% | remaining activity at 0.3 µM [8, 21]: 103% | remaining activity at 0.3 µM [8, 22]: 101% | remaining activity at 0.3 µM [9, 21]: 88.2% | remaining activity at 0.3 µM [9, 22]: 86.8% | remaining activity at 0.3 µM [10, 21]: 78% | remaining activity at 0.3 µM [10, 22]: 76.5% | remaining activity at 0.3 µM [11, 21]: 100% | remaining activity at 0.3 µM [11, 22]: 97.5% | remaining activity at 0.3 µM [12, 21]: 103% | remaining activity at 0.3 µM [12, 22]: 102% | remaining activity at 0.3 µM [13, 21]: 67.5% | remaining activity at 0.3 µM [13, 22]: 63.7% | remaining activity at 0.3 µM [14, 21]: 64.4% | remaining activity at 0.3 µM [14, 22]: 64% | remaining activity at 0.3 µM [15, 21]: 114% | remaining activity at 0.3 µM [15, 22]: 112% | remaining activity at 0.3 µM [16, 21]: 88.3% | remaining activity at 0.3 µM [16, 22]: 83.6% | remaining activity at 0.3 µM [17, 21]: 53.1% | remaining activity at 0.3 µM [17, 22]: 52.8% | remaining activity at 0.3 µM [18, 21]: 89% | remaining activity at 0.3 µM [18, 22]: 88.1% | remaining activity at 0.3 µM [19, 21]: 70.1% | remaining activity at 0.3 µM [19, 22]: 69.8% | remaining activity at 0.3 µM [20, 21]: 101% | remaining activity at 0.3 µM [20, 22]: 92.7%
Structure (SMILES): COc1cc(N2CCN(C)CC2)c(C)cc1Nc1ncc(Br)c(Nc2cccnc2N(C)C)n1 [TP-5801]
